Laboratory results: publication PMC7108740, “Exploring the molecular structures that confer ligand selectivity for galanin type II and III receptors” (PLoS ONE, 2020)

Target: T1, GALR3 septuple (Homo sapiens, UniProt O60755, A190V/A191F/C272L/G192S/L100F/Y103F/Y107H)
T1 construct: expressed in transfected cells; host or cells: HEK293 cells stably expressing pGlosensor-22F cAMP plasmid
T1 sequence (O60755 1-368 L100F/Y103F/Y107H/A190V/A191F/G192S/C272L): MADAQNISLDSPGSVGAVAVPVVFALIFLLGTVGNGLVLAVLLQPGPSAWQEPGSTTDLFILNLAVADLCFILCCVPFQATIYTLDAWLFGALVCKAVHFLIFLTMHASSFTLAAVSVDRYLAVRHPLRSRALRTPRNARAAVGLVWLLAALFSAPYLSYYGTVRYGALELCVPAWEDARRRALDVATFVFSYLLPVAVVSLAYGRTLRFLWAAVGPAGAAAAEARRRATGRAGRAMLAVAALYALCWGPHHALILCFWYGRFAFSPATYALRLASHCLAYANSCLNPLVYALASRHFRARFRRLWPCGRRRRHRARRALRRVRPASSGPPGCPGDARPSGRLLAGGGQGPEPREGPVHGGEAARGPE
Assay: SRE-luc luciferase assay, GALR3 septuple mutant
Type: cell-based
Settings: SRE-luc in HEK293 Gqi cells, ligand 6 h, mean ± SE, SEM
Description: For domain swapping between GALR2 and GALR3, individual cDNA fragments of interest were amplified by polymerase chain reaction (PCR) with Pfu polymerase (ELPIS Biotech, Daejeon, Korea) and two specific primers, one corresponding to the 5' or 3' end of the GALR2 or GALR3 cDNA and the other to the region of overlap between the two receptors. The two resulting fragments, one from GALR2 and the other from GALR3, were subjected to a second round of PCR to generate the chimeric cDNAs. To construct single, double-, triple-, pentuple-, hextuple-, and septuple-mutant receptors, amino acids of GALR3 were substituted for the amino acids at the corresponding positions in GALR2 using PCR-based site-directed mutagenesis. […]
For luciferase assays, HEK293 Gqi cells were seeded on 48-well plates at a density of 2.5 × 10^4 cells/well one day before transfection. […] The luciferase activity in 50 μl cell extract was determined using a luciferase assay system according to the standard protocol for the Synergy 2 Multi-Mode Microplate Reader (BioTek, Winooski, VT, USA).
Data analysis was performed by non-linear regression with a sigmoidal dose-response curve. The concentrations of agonists that induced half-maximal stimulation (EC50) were calculated using the GraphPad PRISM5 software (GraphPad software, Inc., San Diego, CA). […]

EC50: 4.07 ± 1.12 nM
SMILES: CSCC[C@H](NC(=O)[C@H](C)NC(=O)[C@H](CCC(N)=O)NC(=O)[C@@H]1CCCN1C(=O)[C@@H](NC(=O)[C@H](Cc1c[nH]c2ccccc12)NC(=O)[C@@H](N)CC(N)=O)[C@@H](C)O)C(=O)N[C@@H](CC(C)C)C(=O)N[C@@H](Cc1ccc(O)cc1)C(=O)N[C@@H](CC(C)C)C(=O)N[C@@H](CCCCN)C(=O)NCC(=O)N[C@@H](C)C(=O)N[C@@H](CCC(N)=O)C(N)=O [SPX, reference compound]
